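In this assay, cells in 96-well plates receive the compound at five concentrations for 48 hours. Endpoints are linearly interpolated between the surrounding concentrations. At the TGI there is no net growth.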

Some test systems named below: OVCAR-8 ovarian; T-47D breast; U251 CNS; ACHN renal; MDA-MB-435; HT29 colon; SF-539 CNS; RXF 393 renal; A498 renal; DU-145 prostate.
Holding throughout (test): NCI anticancer screen, dose series, 48 h

On to `C[n+]1c(-c2ccc(/C=N/NC(=N)N/N=C/c3ccc(-c4cn5cc(Cl)ccc5[n+]4C)cc3)cc2)cn2cc(Cl)ccc21`, for which the TGI with OVCAR-8 ovarian, in the test with T-47D breast, in the test with U251 CNS, in the test on ACHN renal, in the test with MDA-MB-435 and in the test on HT29 colon was greater than 100 µM throughout. In addition, the TGI in the test with SF-539 CNS is greater than 100 µM.
Take `CC[C@H](O)[C@H](C)C=C1SCCCS1`: the TGI in the test on RXF 393 renal, in the test on A498 renal, in the test with OVCAR-8 ovarian, in the test with U251 CNS, in the test on ACHN renal and in the test with MDA-MB-435 was greater than 100 µM in each case. In addition, the TGI with DU-145 prostate and with HT29 colon was greater than 100 µM each time.
`CCC(CON(C)c1ccccc1)(SC)SC`: the TGI with OVCAR-8 ovarian, in the test on T-47D breast, in the test on U251 CNS, with ACHN renal, in the test on MDA-MB-435 and in the test with DU-145 prostate was greater than 100 µM each time. For the same molecule, the TGI in the test on HT29 colon and with SF-539 CNS was greater than 100 µM throughout.
`Cc1cccc2c(=O)c([Se]c3coc4c(C)cccc4c3=O)coc12`: the TGI amounted to 32.2 µM in the test with RXF 393 renal; 41 µM in the test on A498 renal; 29.8 µM in the test with OVCAR-8 ovarian; 23.8 µM in the test on U251 CNS; 38.3 µM with ACHN renal; 61.7 µM in the test with HT29 colon. In addition, the TGI in the test on SF-539 CNS came to 29.9 µM.
Take `COC(=O)/C=C\n1c(C)cc(=O)[nH]c1=O`: the TGI in the test on RXF 393 renal, with A498 renal, in the test with OVCAR-8 ovarian, in the test on T-47D breast, in the test with U251 CNS and with ACHN renal was greater than 100 µM in each case. Also, the TGI in the test on MDA-MB-435, with HT29 colon and in the test with SF-539 CNS was greater than 100 µM throughout.
As for `CCOC(=O)C1(C/C=C(/C)Cl)CCCC1=O` (stereo not given), the TGI with RXF 393 renal, in the test with A498 renal, with OVCAR-8 ovarian, in the test on U251 CNS, in the test on ACHN renal and with HT29 colon was greater than 100 µM throughout. The TGI in the test on SF-539 CNS was greater than 100 µM.
For `CN1CCCC2(CCCc3ccccc32)C1` (stereo not given), the TGI with A498 renal, with OVCAR-8 ovarian, in the test on U251 CNS, with ACHN renal, with HT29 colon and in the test with SF-539 CNS was greater than 100 µM throughout.
For the molecule `Cc1cnc2sn(-c3ccc(Oc4ccccc4)cc3)c(=O)c2c1`, the TGI in the test on OVCAR-8 ovarian is greater than 100 µM; with T-47D breast, 37.7 µM; in the test with U251 CNS, 46 µM; in the test with ACHN renal, 31.6 µM; in the test with MDA-MB-435, greater than 100 µM; in the test on DU-145 prostate, 37.8 µM. The TGI stood at 39.6 µM in the test with HT29 colon and 31.7 µM in the test with SF-539 CNS.
For the molecule `C[C@]12CCC(=O)C=C1CC[C@@H]1[C@@H]2[C@@H](O)C[C@@]2(C)[C@H]1CC[C@]2(O)C(=O)COC(=O)COCC(=O)O`, the TGI with A498 renal, in the test on OVCAR-8 ovarian, with U251 CNS, in the test with ACHN renal, in the test with HT29 colon and in the test with SF-539 CNS was greater than 100 µM in each case.
With `COc1cc2c(c(OC)c1OC)-c1ccc(SC)c(=O)cc1[C@@H](NCc1ccc(C#N)cc1)CC2`, the TGI in the test on RXF 393 renal is 0.00508 µM; in the test with U251 CNS it was 0.00787 µM; with ACHN renal, greater than 100 µM; in the test with SF-539 CNS it was 0.00582 µM.
Turning to `Clc1ccc(SC(/C=C/NNC2=NC(c3ccccc3)C(c3ccccc3)=NN2)c2ccccc2)cc1` (stereo not given), the TGI in the test with A498 renal was greater than 100 µM; in the test with OVCAR-8 ovarian, greater than 100 µM; in the test on U251 CNS, greater than 100 µM; with ACHN renal, greater than 100 µM; in the test with HT29 colon it was 39.3 µM; in the test with SF-539 CNS it was greater than 100 µM.
Turning to `Cc1ccc(S(=O)(=O)N/N=C(\c2nc3ccc(Cl)cc3[nH]c2=O)C(O)c2cccc([N+](=O)[O-])c2)cc1` (stereo not given), the TGI in the test with RXF 393 renal, in the test with A498 renal, in the test with OVCAR-8 ovarian, with U251 CNS, in the test on ACHN renal and in the test with HT29 colon was greater than 100 µM in each case. The molecule further showed a TGI with SF-539 CNS greater than 100 µM.
For `CN(C)c1ccc(C(=C(c2ccc(N(C)C)cc2)c2ccc(N(C)C)cc2)c2ccc(N(C)C)cc2)cc1`, the TGI was determined as 25.2 µM in the test with RXF 393 renal; 36.8 µM in the test on A498 renal; 44.7 µM in the test on OVCAR-8 ovarian; 28.1 µM in the test on U251 CNS; 24.6 µM in the test with ACHN renal; 35.2 µM in the test with HT29 colon. In addition, the TGI in the test with SF-539 CNS was 28 µM.
Turning to `O=C1c2ccc(O)cc2C(=O)c2ccc(O)cc21`, the TGI is 91.8 µM in the test on RXF 393 renal; greater than 100 µM in the test with A498 renal; greater than 100 µM in the test on OVCAR-8 ovarian; greater than 100 µM in the test with U251 CNS; greater than 100 µM in the test on ACHN renal; greater than 100 µM in the test with HT29 colon. The molecule further yielded a TGI in the test on SF-539 CNS greater than 100 µM.
For `N/C(=N\S(=O)(=O)c1ccc(S(=O)(=O)c2ccccc2)s1)Nc1ccc(Cl)cc1`, the TGI with RXF 393 renal was greater than 100 µM; in the test with A498 renal it was 34.7 µM; in the test on OVCAR-8 ovarian it was 45.1 µM; in the test on T-47D breast it was greater than 100 µM; in the test with U251 CNS it was 27.8 µM; with ACHN renal, 71.4 µM. For the same molecule, the TGI with DU-145 prostate turned out to be 55.3 µM; in the test with HT29 colon, 45.1 µM; with SF-539 CNS, 84.3 µM.
For `CC(C)(C)N=NNc1cn(C2OC(CO)C(O)C2O)c(=O)[nH]c1=O` (stereo not given), the TGI in the test with RXF 393 renal, in the test on A498 renal, with OVCAR-8 ovarian, in the test with ACHN renal and in the test on HT29 colon was greater than 100 µM in each case.
In the case of `Cn1c(=O)c(C(=O)Nc2nc(C34CC5CC(CC(C5)C3)C4)cs2)c(O)c2ccccc21`, the TGI was 65 µM in the test with RXF 393 renal; greater than 100 µM in the test with A498 renal; greater than 100 µM in the test with OVCAR-8 ovarian; greater than 100 µM in the test with U251 CNS; greater than 100 µM with ACHN renal; greater than 100 µM in the test on MDA-MB-435. The TGI in the test with DU-145 prostate, with HT29 colon and in the test on SF-539 CNS was greater than 100 µM throughout.

The record behind these values is PubChem BioAssay (NCI).
